Assay results published in patent US5928933A, “Process for the enzymatic resolution of N-(alkoxycarbonyl)-4-ketoproline alkyl esters or N-(alkoxycarbonyl)-4-hydroxyproline alkyl esters using Candida antarctica lipase B” (priority 1998, dated 1999).
Where two headings read alike, the source gives them in different places.

Columns and labels:
Type in all cases: biochemical
[1] = target: T1, Candida antartica lipase fraction B (CALB) (Moesziomyces antarcticus, UniProt P41365); settings: for resolution with high enantioselectivity: CALB or any of the other commercially-available esterases, lipases, and proteases screened (Examples 7, 8); for isomer remaining: candida antartica lipase b, 19000 µM, pH 5
T1 construct: purchased Boehringer Mannheim CHIRAZYME L-2
T1 sequence (P41365 26-342): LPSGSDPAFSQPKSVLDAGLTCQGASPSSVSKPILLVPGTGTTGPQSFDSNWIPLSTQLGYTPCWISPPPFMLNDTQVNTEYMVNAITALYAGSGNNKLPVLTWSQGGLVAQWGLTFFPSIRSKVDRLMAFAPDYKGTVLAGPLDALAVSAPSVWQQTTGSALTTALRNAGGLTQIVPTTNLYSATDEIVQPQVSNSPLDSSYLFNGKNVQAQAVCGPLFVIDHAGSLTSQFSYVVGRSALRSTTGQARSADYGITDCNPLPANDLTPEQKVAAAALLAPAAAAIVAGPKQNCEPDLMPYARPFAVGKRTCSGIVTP
Experimental: Reacting a 0.10M solution of the 1:1 mixture of KDP(MEMC) and KLP(MEMC) in 0.20M succinate (pH 6.0) at 25° C. for 5 h with approximately 1-3 mg/mL of Candida antartica lipase fraction B (CALB) produced a 95% ee (substrate) of KDP(MEMC) at 51% conversion. […] The calculated enantioselectivity (E) at 51% conversion was E=81.
The enzymatic hydrolysis reaction of KDP(MEMC) and KLP(MEMC) using CALB (described above) was repeated at pH 5.0 in 0.20M acetate buffer (Example 2), and a 100% ee (substrate) of the D-isomer was obtained at 51% conversion (E=>1000); the reaction rate was approximately 50% of the rate at pH 6.0, and the slight loss of the D-isomer at pH 5.0 was again observed in the absence of added enzyme (95% recovery at pH 5.0 after 24 h with no enzyme).
The procedure described in Example I was repeated using Candida antartica lipase fraction B (CALB), except that the reaction was run in 0.200M sodium cetate (pH 5.0) instead of the 0.20M sodium succinate buffer (pH 6.0) used for Candida antartica lipase fraction B in Example 1. Aqueous solutions (5.0 mL) containing varying concentrations of a racemic mixture of N-(methoxycarbonyl)-4-keto-D,L-proline methyl ester and CALB were mixed at 15° C., 25° C., 35° C. or 45° C.
An aqueous solution (5.0 mL) containing 25 mM N-(methoxycarbonyl)-4-keto-Dproline methyl ester and 25 mM N-(methoxycarbonyl)-4-keto-L-proline methyl ester in 0.200M sodium acetate (pH 5.0) was mixed with 2.5 g of immobilized Candida antartica lipase fraction B (Boehringer Mannheim, CHIRAZYME® L-2, c.-f., C2, lyo.) at 25° C. […] The dichloromethane extract was then analyzed by chiral gas chromatography on a Chiraldex G-TA column (Advanced Separation Technologies, Inc., 50 m×0.32 mm ID) to determine the amounts of the unreacted D- and L-isomers. After 31 h, an 85% enantiomeric excess of N-(methoxycarbonyl)-4-keto-D-proline methyl ester was obtained at 41% conversion of the racemic mixture.
A 200 mL aqueous solution containing 0.200M sodium acetate (pH 5.0), 1.3325 g of Candida antartica lipase fraction B, and 4.02 g of racemic N-(methoxycarbonyl)-4-keto-D,L-proline methyl ester (100 mM) was stirred at 25° C. After 24 h, an 96% enantiomeric excess of N-(methoxycarbonyl)-4-keto-D-proline methyl ester was obtained at 50% conversion of the racemic mixture. The reaction mixture was filtered using a 10,000 MWCO membrane filter (Amicon) to remove the enzyme catalyst, and the filtrate extracted with three 200 mL portions of dichloromethane. The combined organic extracts were dried over magnesium sulfate, filtered, and the dichloromethane removed from the filtrate by rotary evaporation at reduced pressure. Residual dichloromethane was removed from the resulting colorless oil at high vacuum (50 millitorr) to produce N-(methoxycarbonyl)-4-keto-D-proline methyl ester as a white solid (1.99 g, 99% isolated yield, 99% purity (by GC), 97% ee).
An aqueous solution (2.0 mL) containing 50 mM N-(ethoxycarbonyl)-4-keto-D-proline ethyl ester and 50 mM N-(ethoxycarbonyl)-4-keto-L-proline ethyl ester in 0.200M sodium acetate (pH 5.0) and 30 mg/mL of Candida antartica lipase fraction B was mixed at 25° C. […] The dichloromethane extract was then analyzed by chiral gas chromatography on a Chiraldex G-TA column (Advanced Separation Technologies, Inc., 50 m×0.32 mm ID) to determine the amounts of the unreacted D- and L-isomers. After 24 h, a 100% enantiomeric excess of N-(ethoxycarbonyl)-4-keto-D-proline ethyl ester was obtained at 51% conversion of the racemic mixture.
An aqueous solution (1.0 mL) containing 19 mM of N-(2-phenylacetyl)-4-keto-D-proline methyl ester and 19 mM of N-(2-phenylacetyl)-4-keto-L-proline methyl ester in 0.200M sodium acetate (pH 5.0) and 25 mg/mL of Candida antartica lipase fraction B was mixed at 25° C. […]

[2] = Enzyme screens for resolution of racemic N-(methoxycarbonyl)-4-keto-D,L-proline methyl ester (Example 1); settings: 0.100M racemate, 5.0 to 50 mg/mL enzyme, 25° C., optimum
Experimental: An aqueous solution (1.0 mL) containing 0.100M racemic N-(methoxycarbonyl)-4-keto-D,L-proline methyl ester in either 0.20M sodium succinate (pH 6.0) or 0.20M sodium acetate (pH 5.0) was mixed with 5.0 to 50 mg/mL of commercial enzyme preparations (listed in the table below) at 25° C. […] The dichloromethane extract was then analyzed by chiral gas chromatography on a Chiraldex G-TA column (Advanced Separation Technologies, Inc., 50 m×0.32 mm ID) to determine the percent conversion of the racemate, and the enantiomeric excess of the N-(methoxycarbonyl)-4-keto-D-proline methyl ester.

[3] = Enzyme screens for resolution of diastereomeric mixture CHDP(MEMC)/THLP(MEMC) (Example 9); settings: 0.050M each isomer, 5 h or 24 h, 5.0 to 50 mg/mL enzyme, 25° C.
Experimental: (§1) An aqueous solution (1.0 mL) containing 0.050M N-(methoxycarbonyl)-trans-4-hydroxy-L-proline methyl ester and 0.050M N-(methoxycarbonyl)-cis-4-hydroxy-D-proline methyl ester in 0.100M potassium phosphate (pH 7.0) was mixed with 5.0 to 50 mg/mL of commercial enzyme preparations (listed in the table below) at 25° C. The reactions were analyzed after 5 h or 24 h by removal of a 0.200 mL sample and mixing with an equivalent volume of 0.100M propionic acid (HPLC internal standard) in water. The resulting solution was filtered through a 10K molecular weight cut-off filter to remove the enzyme and the filtrate analyzed by high pressure liquid chromatography on a HPX-87H column (Bio-Rad, 30 cm×7.8 mm) to determine the percent conversion of each isomer of the diastereomeric mixture, and the diastereomeric excess of the N-(methoxycarbonyl)-cis-4-hydroxy-D-proline methyl ester.

[4] = Enzyme screens for resolution of diastereomeric mixture CHLP(MEMC)/THLP(MEMC) (Example 13); settings: 0.050M each isomer, 5 h, 5.0 to 50 mg/mL enzyme, 25° C.
Experimental: as §1, with “solution” for “solution (1.0 mL)”, “N-(methoxycarbonyl)-cis-4-hydroxy-L-proline” for “N-(methoxycarbonyl)-cis-4-hydroxy-D-proline”, “5” for “5 h or 24”, “of” for “of each isomer of”

[5] = 19 mM each isomer, 25 mg/mL CALB, pH 5.0, 25° C., 28 h
[6] = 50 mM each isomer, 30 mg/mL CALB, pH 5.0, 25° C., 24 h
[7] = 0.10M 1:1 mixture, 0.20M succinate pH 6.0, 25° C., 5 h, approximately 1-3 mg/mL CALB
[8] = 100 mM racemate, 10 mg/mL CALB, 25° C., 24 h, pH 5.0
[9] = 100 mM racemate, 20 mg/mL CALB, 45° C., 6 h, pH 5.0
[10] = 200 mM racemate, 6.7 mg/mL CALB, 35° C., 29 h, pH 5.0
[11] = 300 mM racemate, 31 mg/mL CALB, 45° C., 23 h, pH 5.0
[12] = 200 mL, 100 mM racemate, 1.3325 g CALB, pH 5.0, 25° C., 24 h
[13] = immobilized CALB 2.5 g in 5.0 mL, 25 mM each isomer, pH 5.0, 25° C., 31 h
[14] = 0.100M potassium phosphate pH 7.0

COC(=O)C1CC(=O)CN1C(=O)Cc1ccccc1 (racemic) [N-(2-phenylacetyl)-4-keto-D,L-proline methyl ester]
conversion of the racemic mixture [1, 5]: 38%
enantiomeric excess of the D-isomer [1, 5]: 55%

COC(=O)C1CC(=O)CN1C(C)=O (racemic) [N-(acetyl)-4-keto-D,L-proline methyl ester]
resolution with high enantioselectivity [1]: could not be resolved with high enantioselectivity

CCOC(=O)C1CC(=O)CN1C(=O)OCC (racemic) [N-(ethoxycarbonyl)-4-keto-D,L-proline ethyl ester]
conversion of the racemic mixture [1, 6]: 51%
enantiomeric excess of the D-isomer (KDP(EEEC)) [1, 6]: 100%

COC(=O)C1CC(OC)(OC)CN1C(=O)OC (racemic) [N-(methoxycarbonyl)-4,4-dimethoxy-D,L-proline methyl ester]
resolution with high enantioselectivity [1]: could not be resolved with high enantioselectivity

COC(=O)C1CC(=O)CN1C(=O)OC (racemic) [N-(methoxycarbonyl)-4-keto-D,L-proline methyl ester]
conversion [1, 7]: 51%
ee (substrate) of KDP(MEMC) [1, 7]: 95%
ee D-isomer [1, 8]: 100%
racemate conv. [1, 8]: 51%
ee D-isomer ([1]; 100 mM racemate, 20 mg/mL CALB, 15° C., 24 h, pH 5.0): 100%
racemate conv. ([1]; 100 mM racemate, 20 mg/mL CALB, 15° C., 24 h, sodium acetate pH 5.0): 51%
ee D-isomer [1, 9]: 100%
racemate conv. [1, 9]: 50%
conversion ([1]; 0.20M acetate buffer pH 5.0): 51%
ee (substrate) of the D-isomer ([1]; 0.20M acetate buffer pH 5.0): 100%
ee D-isomer [1, 10]: 97%
racemate conv. [1, 10]: 51%
ee D-isomer [1, 11]: 99%
racemate conv. [1, 11]: 48%
conversion of the racemic mixture [1, 12]: 50%
enantiomeric excess of the D-isomer [1, 12]: 96%
enantioselectivity (E) ([1]; at 51% conversion, pH 5.0): > 1000
calculated enantioselectivity (E) ([1]; at 51% conversion, pH 6.0): 81
conversion of the racemic mixture [1, 13]: 41%
enantiomeric excess of the D-isomer [1, 13]: 85%
reaction rate relative to the rate at pH 6.0 ([1]; pH 5.0): approximately 50%

COC(=O)[C@H]1CC(=O)CN1C(=O)Cc1ccccc1 [N-(2-phenylacetyl)-4-keto-D-proline methyl ester]
isomer remaining ([1]; 28 h): 97%

COC(=O)[C@@H]1CC(=O)CN1C(=O)Cc1ccccc1 [N-(2-phenylacetyl)-4-keto-L-proline methyl ester]
isomer remaining ([1]; 28 h): 28%

B1: protease, type VIII: commercial enzyme preparation, source Bacillus licheniformis (protein, UniProt P00780 106-379, looked up)
Subtilisin Carlsberg: AQTVPYGIPLIKADKVQAQGFKGANVKVAVLDTGIQASHPDLNVVGGASFVAGEAYNTDGNGHGTHVAGTVAALDNTTGVLGVAPSVSLYAVKVLNSSGSGSYSGIVSGIEWATTNGMDVINMSLGGASGSTAMKQAVDNAYAKGVVVVAAAGNSGSSGNTNTIGYPAKYDSVIAVGAVDSNSNRASFSSVGAELEVMAPGAGVYSTYPTNTYATLNGTSMASPHVAGAAALILSKHPNLSASQVRNRLSSTATYLGSSFYYGKGLINVEAAAQ
conv. (percent conversion of the racemate) ([2]; 0.20M sodium succinate pH 6.0, 5 h or 0.20M sodium acetate pH 5.0, 24 h): 32%
% ee (enantiomeric excess of the D-isomer; L-isomer with porcine liver esterase) ([2]; pH 6.0, 5 h or pH 5.0, 24 h): 23%
conv. (percent conversion of the diastereomeric mixture) [3, 14]: 16%
% de (diastereomeric excess of the D-isomer, CHDP(MEMC)) ([3]; pH 7.0): 16%
conv. (percent conversion of the diastereomeric mixture) [4, 14]: 4%
% de (diastereomeric excess of the cis-L-isomer) ([4]; pH 7.0): 6%
